Structures can show the parent of a compound that is named as a salt. No end group written: not given here.
How the values were obtained:
[1] = central administration, freely-feeding rats, 4 hour time period; cited from earlier work
[2] = Rat sleep/EEG studies, central administration at onset of normal sleep period; assay type: in vivo; conditions: at the expense of paradoxical sleep and slow wave sleep 2
Excerpt: Therefore, antagonists of orexin receptors may be useful in the treatment of sleep disorders including insomnia.

human orexin-1 receptor = biological target: T1, human orexin-1 receptor (Homo sapiens, UniProt O43613); assay: Orexin-1 receptor antagonist activity, FLIPR intracellular calcium assay in HEK293 cells against 3.0 nM human orexin-A; assay type: cell-based; conditions: HEK293 cells expressing human orexin-1 receptor; antagonism of 3.0 nM human orexin-A; Kb=IC50/(1+([3/EC50])
T1 construct: expressed in transfected cells; host or cells: HEK293
T1 sequence (O43613 1-425): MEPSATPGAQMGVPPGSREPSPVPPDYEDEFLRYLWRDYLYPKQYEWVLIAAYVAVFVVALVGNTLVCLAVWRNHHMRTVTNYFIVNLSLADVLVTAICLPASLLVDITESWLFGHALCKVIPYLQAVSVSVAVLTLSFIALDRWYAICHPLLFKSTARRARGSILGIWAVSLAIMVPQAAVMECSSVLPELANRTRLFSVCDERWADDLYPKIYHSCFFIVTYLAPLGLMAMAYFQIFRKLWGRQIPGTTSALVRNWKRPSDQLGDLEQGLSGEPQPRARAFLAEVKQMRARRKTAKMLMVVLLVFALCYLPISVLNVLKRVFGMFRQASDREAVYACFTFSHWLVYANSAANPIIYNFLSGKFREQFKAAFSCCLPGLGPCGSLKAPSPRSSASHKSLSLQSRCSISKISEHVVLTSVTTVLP
Description: The seeded plates were incubated overnight at 37° C. in 5% CO2.

| Kb (human orexin-1 receptor) | Molecule | increase in food intake over control rats receiving vehicle [1] | effect on arousal [2] |
| --- | --- | --- | --- |
|  | orexin-A: ligand for the orexin-1 receptor; 33-residue peptide, sequence given in the 1st table (QPLPDCCRQKTCSCRLYELLHGAGNHAAGILTL-NH2; not fully specified (residue 1, bridges); ends and bridges not checked; UniProt O43612 34-66, looked up) | approximately four-fold | does-related increase in arousal |
| < 100 nM | CSc1ccc(NC(=O)Nc2ccnc3cccnc23)cc1 [Example 2, 1-(4-Methylthiophenyl)-3-[1,5]naphthyridin-4-yl urea hydrochloride] |  |  |
